Results as given in article PMC9849758, “Chemically diverse activity-based probes with unexpected inhibitory mechanisms targeting trypsin-like serine proteases” (Frontiers in Chemistry, 2023).
Read-outs that look alike come from different tables or passages of the source.

Tests used:
Type in all cases: biochemical
Trypsin-3 = target: T1, Trypsin-3 (Homo sapiens, UniProt P35030); test: Jump dilution, determination of inhibition type; set-up: purchased R&D; settings: inhibitor at 10 times IC50, 15 min, diluted 10-fold or 100-fold; Rev./Irrev.
T1 sequence (P35030 1-304): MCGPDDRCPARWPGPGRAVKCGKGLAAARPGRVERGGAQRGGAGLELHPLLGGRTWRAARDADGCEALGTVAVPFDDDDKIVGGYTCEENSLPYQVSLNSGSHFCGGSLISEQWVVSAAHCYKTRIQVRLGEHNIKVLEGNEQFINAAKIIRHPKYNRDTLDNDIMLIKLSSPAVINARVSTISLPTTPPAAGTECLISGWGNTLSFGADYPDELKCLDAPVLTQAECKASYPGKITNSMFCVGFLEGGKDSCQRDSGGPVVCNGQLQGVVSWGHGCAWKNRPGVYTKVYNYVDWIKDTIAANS
Description: (§1) The dissociation of the enzyme-inhibitor complex was monitored by substrate hydrolysis over time ([Joossens et al., 2006]).
(§2) Because ABPs are designed to be irreversible serine protease inhibitors, the IC50 is exclusively used as a first discriminatory evaluation. When an inhibitor is irreversible, its IC50 value not only depends on the substrate and enzyme concentration but also on the time of incubation with the enzyme before the reaction is started by adding the substrate. […] The progress curve in the presence of an irreversible inhibitor will show final velocities equal to zero (Figure 6C). In contrast, for a reversible inhibitor, progress curves have a non-zero final steady-state velocity (Figure 6A) ([McWhirter, 2021]). To corroborate the inhibitory mechanism of the compounds, jump-dilution assays were performed. These use an inhibitor concentration of 10-fold the IC50 for the incubation, and a posteriori, the reaction mixture is diluted 10-fold or 100-fold before adding the substrate. In the case of an irreversible inhibitor, enzymatic activity is not regained (Figure 6D), whereas, in the case of a reversible compound, a slow release of the inhibitor and a gradual increase of the enzymatic activity rate is observed (Figure 6B) ([Copeland, 2013]; [McWhirter, 2021]). The jump-dilution assays confirmed the behavior described by the progress curves.
(§3) 2.2.2 Jump dilution results
(§4) Supplementary Table 2. Jump dilution of selected alkyne and desthiobiotin probes against a panel of trypsin-like serine proteases. […]
(§5) # R R DtBa 3 tryptase Thrombin uPA CatG
(§6) 32b H Alk Irrev. Irrev. Rev. Irrev. Rev.
(§7) 45b DtB Irrev. Irrev. Rev. N.D. N.D.
(§8) 33b Alk Irrev. Irrev. Rev. Irrev. Rev.
(§9) 46b Cl DtB Irrev. Irrev. Rev. N.D. N.D.
(§10) 34b H Alk Rev. Rev. Rev. Irrev. Rev.
(§11) 50b DtB Rev. Rev. Rev. Irrev. Rev.
(§12) 35b Alk Rev. Rev. Rev. Irrev. Rev.
(§13) 52b NHCOMe DtB Rev. Rev. Rev. Irrev. Rev.
(§14) 36b Alk Rev. Rev. Rev. Irrev. Rev.
(§15) 54b Cl DtB Rev. Rev. Rev. Irrev. Rev.
(§16) 37b Alk Irrev. Irrev. N.D. Irrev. Irrev.
(§17) 55b H DtB Irrev. Irrev. N.D. Irrev. Irrev.
(§18) 38b Alk Irrev. Irrev. N.D. Irrev. Irrev.
(§19) 56b NHCOMe DtB Irrev. Irrev. N.D. Irrev. Irrev.
(§20) 39b Alk Irrev. Irrev. N.D. Irrev. Rev.
(§21) 57b Cl DtB Irrev. Irrev. N.D. Irrev. Rev.
(§22) 41b H Alk Irrev. Irrev. Irrev. N.D. N.D.
(§23) 31b Pro-Lys H Alk Irrev. Irrev. Irrev. Irrev. N.D. a Alk: ABP precursor bearing an alkyne; DtB: desthiobiotin probe b Panel of serine proteases abbreviations: urokinase plasminogen activator (uPA), cathepsin G (catG) N.D.: IC50 is greater than 10µM, and jump dilution was not performed
(§24) 2.2.3 Progress curves and Jump dilution experiments
(§25) Kinetic assays were performed in the following manner. The inhibitor was mixed with the substrate, and the buffer solution with the enzyme was added at the time zero. The progress curves show the release of para-nitroaniline (pNA) or 7-amino-4-methyl coumarin (AMC) as a function of time.
(§26) To monitor the dissociation of the inhibitor-enzyme, aliquots of the enzyme were incubated at 37 °C without and with the inhibitor at a concentration 10 times higher than its IC 50. The enzyme […]
(§27) min, the aliquots were diluted 10-fold or 100-fold into the substrate concentration and assay buffer used for the IC50 determination. The dissociation of the enzyme-inhibitor complex was monitored by substrate hydrolysis over time. Blue lines represent the control where no inhibitor was present. Pink lines represent the assay with inhibitor.

[1] = target: T2, Thrombin (recombinant thrombin) (Homo sapiens, UniProt P00734); test: IC50 determination, spectrophotometric protease assay
T2 construct: purchased R&D
Description: (§28) The IC50 values were determined using a spectrophotometric assay. All the experiments were conducted in duplicate. The readout consisted of evaluating the protease-mediated release of the chromophore para-nitroaniline (pNA) or fluorophore 7-amino-4-methyl coumarin (AMC) moieties from the respective substrates. Enzymatic activity was measured for 30 min at 37°C. All compounds were initially screened at three concentrations (10, 1, and .1 μM) to estimate the range of the IC50 value. Those which were able to reduce protease activity by at least 50% at a concentration of 10 μM were submitted to an exact IC50 determination. […] A third independent experiment was performed when the standard deviation of the two independent experiments was higher than […]. IC50 values were obtained by fitting the data with the four-parameter logistics equation using GraphPad Prism 9.
(§29) The conditions for each protease are described as follows, the concentration of substrate used was at the corresponding Km.

[2] = target: T3, Cathepsin G (cathepsin G human neutrophil) (Homo sapiens, UniProt P08311); test: as above
T3 construct: Cathepsin G (cathepsin G human neutrophil, Sigma-Aldrich); purchased Sigma-Aldrich; host or cells: human neutrophil
T3 sequence (P08311 21-255): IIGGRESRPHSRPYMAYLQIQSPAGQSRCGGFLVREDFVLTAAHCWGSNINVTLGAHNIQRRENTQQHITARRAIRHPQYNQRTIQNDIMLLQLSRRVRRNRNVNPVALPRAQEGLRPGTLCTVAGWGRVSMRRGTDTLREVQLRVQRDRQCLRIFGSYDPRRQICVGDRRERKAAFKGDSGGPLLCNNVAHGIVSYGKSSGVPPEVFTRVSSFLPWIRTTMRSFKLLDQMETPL
Description: as §28, §29

[3] = target: T4, uPA (recombinant urokinase plasminogen activator) (Homo sapiens, UniProt P00749); test: as above
T4 construct: purchased HYPHEN BioMed
Description: as §28, §29

[4] = target: T5, Trypsin-3 (recombinant trypsin-3) (Homo sapiens, UniProt P35030); test: as above
T5 construct: purchased R&D
T5 sequence (P35030 1-304): T1 sequence (P35030 1-304)
Description: as §28, §29

[5] = target: T6, β-tryptase (recombinant tryptase β-2) (Homo sapiens, UniProt P20231); test: as above
T6 construct: purchased EnzoLife Sciences
T6 sequence (P20231 31-275): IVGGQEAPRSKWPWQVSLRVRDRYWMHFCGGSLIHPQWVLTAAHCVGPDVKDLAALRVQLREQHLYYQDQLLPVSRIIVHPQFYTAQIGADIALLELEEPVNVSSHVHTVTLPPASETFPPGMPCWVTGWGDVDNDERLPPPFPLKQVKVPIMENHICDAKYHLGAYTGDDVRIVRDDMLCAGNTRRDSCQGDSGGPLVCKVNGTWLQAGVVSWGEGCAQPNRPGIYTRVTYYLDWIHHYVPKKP
Description: as §28, §29

[6] = target: T7, TLCK-treated pancreatic bovine chymotrypsin (Bos taurus, UniProt P00766); test: as above
T7 construct: TLCK-treated pancreatic bovine chymotrypsin (Sigma-Aldrich); purchased Sigma-Aldrich; host or cells: bovine pancreas
Description: as §28, §29

uPA = target: T8, uPA (Homo sapiens, UniProt P00749); test: Jump dilution, determination of inhibition type; settings: inhibitor at 10 times IC50, 15 min, diluted 10-fold or 100-fold; Rev./Irrev.
T8 construct: purchased HYPHEN BioMed
Description: as §1, §2, §3, §4, §5, §6, §7, §8, §9, §10, §11, §12, §13, §14, §15, §16, §17, §18, §19, §20, §21, §22, §23, §24, §25, §26, §27

SMILES | Trypsin-3 jump dilution result (Trypsin-3) | IC50 ([1]; read-out: Thrombin IC50, desthiobiotin probes, 15 min preincubation at 37°C, mean ± SD) [nM] | IC50 ([2]; read-out: CatG IC50, desthiobiotin probes, 15 min preincubation at 37°C, mean ± SD) [nM] | IC50 ([3]; read-out: uPA IC50, desthiobiotin probes, 15 min preincubation at 37°C, mean ± SD) [nM] | IC50 ([4]; read-out: Trypsin-3 IC50, desthiobiotin probes, 15 min preincubation at 37°C, mean ± SD) [nM] | IC50 ([5]; read-out: β-tryptase IC50, desthiobiotin probes, 15 min preincubation at 37°C, mean ± SD) [nM] | IC50 ([6]; read-out: ChTryp IC50, desthiobiotin probes, 15 min preincubation at 37°C, mean ± SD) [µM] | uPA jump dilution result (uPA) | IC50 [1] [nM] | IC50 [2] [nM] | IC50 [3] [nM] | IC50 [4] [nM] | IC50 [5] [nM] | IC50 [6] [µM]
CC(=O)Nc1ccc(OP(=O)(Oc2ccc(NC(C)=O)cc2)C(NC(=O)OCCCc2cn(CCOCCOCCOCCNC(=O)CCCCC[C@H]3NC(=O)N[C@H]3C)nn2)c2ccc(NC(=N)N)cc2)cc1 (stereo partly shown) [56b] | Irrev. | > 10000 | 620 ± 9 | 5190 ± 80 | 220 ± 4 | 390 ± 100 | > 10 | Irrev. |  |  |  |  |  | 
C#CCCCOC(=O)NC(Cc1ccc(NC(=N)N)cc1)P(=O)(Oc1ccc(Cl)cc1)Oc1ccc(Cl)cc1 (stereo not shown) [36b] | Rev. |  |  |  |  |  |  | Irrev. | 1770 ± 50 | 340 ± 8 | 5 ± 0.3 | < 1 | 70 ± 20 | 3.23 ± 1.21
C[C@@H]1NC(=O)N[C@@H]1CCCCCC(=O)NCCOCCOCCOCCn1cc(CCCOC(=O)NC(Cc2ccc(NC(=N)N)cc2)P(=O)(Oc2ccc(Cl)cc2)Oc2ccc(Cl)cc2)nn1 (stereo partly shown) [54b] | Rev. |  |  |  |  |  |  | Irrev. | 200 ± 20 | 120 ± 10 | 6 ± 0.1 | 8 ± 2 | 110 ± 9 | 5.6 ± 1.06
C#CCCCOC(=O)NC(Cc1ccc(NC(=N)N)cc1)P(=O)(Oc1ccc(NC(C)=O)cc1)Oc1ccc(NC(C)=O)cc1 (stereo not shown) [35b] | Rev. |  |  |  |  |  |  | Irrev. | 1110 ± 50 | 60 ± 6 | 5 ± 1 | < 1 | 50 ± 3 | > 10
C#CCCCOC(=O)NC(CCCNC(=N)N)P(=O)(Oc1ccc(Cl)cc1)Oc1ccc(Cl)cc1 (stereo not shown) [33b] | Irrev. |  |  |  |  |  |  | Irrev. | 110 ± 7 | 2760 ± 50 | 250 ± 30 | 40 ± 8 | 170 ± 10 | > 10
